Measurements as given in patent US5786348A, “Methods for preparation and use of 1α,24(S)-dihydroxy vitamin D2” (priority 1995, dated 1998).

Tests used:
vitamin D receptor (VDR) = target: T1, vitamin D receptor (VDR) (Homo sapiens, UniProt P11473); test: Vitamin D-dependent transcriptional activation: growth hormone production in COS-1 cells co-transfected with VDR plasmid and VDRE-GH reporter; format: cell-based; settings: for Total GH Production: averages of duplicate determinations
T1 sequence (P11473 1-427): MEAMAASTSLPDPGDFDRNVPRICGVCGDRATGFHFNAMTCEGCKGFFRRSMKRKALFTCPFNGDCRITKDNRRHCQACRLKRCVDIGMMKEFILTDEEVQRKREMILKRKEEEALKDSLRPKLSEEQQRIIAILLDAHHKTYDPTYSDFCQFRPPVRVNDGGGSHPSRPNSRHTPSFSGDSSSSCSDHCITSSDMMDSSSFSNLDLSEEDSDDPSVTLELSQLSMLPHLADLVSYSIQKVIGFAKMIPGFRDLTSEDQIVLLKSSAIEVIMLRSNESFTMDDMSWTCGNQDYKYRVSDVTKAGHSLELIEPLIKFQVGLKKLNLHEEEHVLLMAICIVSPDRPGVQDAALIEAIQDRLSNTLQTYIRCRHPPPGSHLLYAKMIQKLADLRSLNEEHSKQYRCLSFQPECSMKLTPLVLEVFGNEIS
Description: The biological activity in vitro of chemically synthesized 1α,24(S)-(OH)2 D2 and 1α,24(R)-(OH)2 D2 was measured using a vitamin D-dependent transcriptional activation model system in which a vitamin D receptor (VDR)-expressing plasmid pSG5-hVDR1/3and a plasmid p(CT4)^4 TKGH containing a Growth Hormone (GH)-gene, under the control of a vitamin D-responsive element (VDRE) were co-transfected into Green monkey kidney, COS-1 cells. DNA's for these two vectors were supplied by Dr. Mark Haussler, Department of Biochemistry, University of Arizona, Tucson, Ariz.
Transfected cells were incubated with vitamin D metabolites and growth hormone production was measured.

[1] = Preventive treatment of bone mass loss in postmenopausal osteoporotic women; format: in vivo, human; settings: at or above 1.0 μg/day, 24 to 36 months
Description: A clinical study is conducted with postmenopausal osteoporotic out-patientshaving ages between 55 and 75 years. The study involves up to 120 patients randomly divided into three treatment groups and continues for 24 to 36 months. Two of the treatment groups receive constant dosages of 1α,24(S)-dihydroxy vitamin D2 (u.i.d.; two different dose levels at or above 1.0 μg/day) and the other group receives a matching placebo. All patients maintain a normal intake of dietary calcium (500 to 800 mg/day) and refrain from using calcium supplements. Efficacy is evaluated by pre-and post-treatment comparisons of the patient groups with regard to (a) total body calcium retention, and (b) radial and spinal bone mineral density as determined by dual-photon absorptiometry (DPA) or dual-energy x-ray absorptiometry (DEXA). Safety is evaluated by comparisons of urinary hydroxyproline excretion, serum and urine calcium levels, creatinine clearance, blood urea nitrogen, and other routine determinations.

[2] = Hypocalcemia and metabolic bone disease in chronic hemodialysis patients; format: in vivo, human; settings: greater than 3.0 μg/day, twelve months
Description: A twelve-month, double-blind, placebo-controlled clinical trial is conducted with thirty men and women with renal disease who are undergoing chronic hemodialysis. […] Efficacy is evaluated by pre- and post-treatment comparisons of the two patient groups with regard to (a) direct measurements of intestinal calcium absorption, (b) total body calcium retention, (c) radial and spinal bone mineral density, or (d) determinations of serum calcium. Safety is evaluated by regular monitoring of serum calcium.

[3] = target: T2, vitamin D serum binding protein (DBP) (Rattus norvegicus, UniProt P04276); test: Binding to vitamin D serum binding protein in vitamin D deficient rat serum
T2 sequence (P04276 17-476): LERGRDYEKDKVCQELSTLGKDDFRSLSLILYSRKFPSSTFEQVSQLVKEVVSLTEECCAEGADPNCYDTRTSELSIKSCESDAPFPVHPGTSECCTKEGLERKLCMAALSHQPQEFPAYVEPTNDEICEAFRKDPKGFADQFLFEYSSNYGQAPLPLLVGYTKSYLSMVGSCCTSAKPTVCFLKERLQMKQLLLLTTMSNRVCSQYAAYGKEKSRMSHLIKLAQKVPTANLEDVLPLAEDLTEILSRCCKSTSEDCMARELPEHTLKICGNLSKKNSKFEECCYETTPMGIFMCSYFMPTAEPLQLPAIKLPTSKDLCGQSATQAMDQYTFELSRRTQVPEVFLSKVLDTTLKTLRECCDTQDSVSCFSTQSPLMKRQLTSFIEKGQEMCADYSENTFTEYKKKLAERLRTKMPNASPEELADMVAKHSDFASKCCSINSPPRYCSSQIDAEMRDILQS
From the text: In addition, the weak binding by the DBP was indicative of more rapid clearance, allowing for low toxicity.

HL-60 promyelocytes = test: HL-60 cell differentiation assay; format: cell-based; settings: dose-response; acid esterase, NBT reduction, thymidine incorporation
Description: A dose-response study is conducted with 1α,24(S)-(OH)2 D2 in the HL-60 cell differentiation assay as described by DeLuca and Ostrom (DeLuca, H. F. and ostrem, V. K., Prog. Clin. Biol. Res., vol. 259, pp. 41-55 (1988)). In this study, 1α,25-(OH)2 D3 is used as a positive control and appropriate solvents are used as negative controls. The following variables are evaluated: nonspecific acid esterase activity, nitroblue tetrazolium (NBT) reduction, and thymidine incorporation.

[4] = Prophylaxis of postmenopausal bone loss in healthy postmenopausal women; format: in vivo, human
Description: A clinical study is conducted with healthy postmenopausal women having ages between 55 and 60 years. The study involves up to 80 patients randomly divided into two treatment groups, and continues for 24 to 36 months. One treatment group receives a constant dosage of 1α,24(S)-dihydroxy vitamin D2 (u.i.d.; a dose level at or above 1.0 μg/day) and the other receives a matching placebo. The study is conducted as indicated in Example 12 above.

[5] = system: human cancer cell lines BCA-1 or ZR-75-1 (breast) and COL-1 (colon); test: Antiproliferative activity in human cancer cell lines (thymidine incorporation); format: cell-based; settings: dose-response in breast and colon cancer cell lines
Description: Dose-response studies are conducted with 1α,24(S)-(OH)2 D2 in a battery of human cancer cell lines. These cell lines include, but are not limited to, the following: BCA-1 or ZR-75-1 (breast) and COL-1 (colon), as described by Shieh, H. L. et al. Chem. Biol. Interact., vol. 81, pp. 35-55 (1982). In this study, appropriate solvents are used as negative controls.

[6] = inducer molar concentration 5 × 10^-8
[7] = inducer molar concentration 5 × 10^-9
[8] = inducer molar concentration 5 × 10^-10

Activity in the transcriptional activation system relative to 1α,24(R)-(OH)2 D2 (vitamin D receptor (VDR); compared with the 24(R) epimer): significantly more activity
Net vitamin D-inducible GH-production (vitamin D receptor (VDR); [6]): 1138 ng/mL
Total GH Production (vitamin D receptor (VDR); [6]): 1182 ng/mL
Net vitamin D-inducible GH-production (vitamin D receptor (VDR); [7]): 1306 ng/mL
Total GH Production (vitamin D receptor (VDR); [7]): 1350 ng/mL
Net vitamin D-inducible GH-production (vitamin D receptor (VDR); [8]): 381 ng/mL
Total GH Production (vitamin D receptor (VDR); [8]): 425 ng/mL
Binding to the vitamin D serum binding protein relative to 1,25-(OH)2 D3 ([3]; compared with 1,25-(OH)2 D3): more weakly
Binding affinity for the vitamin D serum binding protein ([3]; in words): relatively poor binding affinity
Structure (SMILES): C=C1/C(=C\C=C2/CCC[C@]3(C)[C@@H]([C@H](C)/C=C/[C@@](C)(O)C(C)C)CC[C@@H]23)C[C@@H](O)C[C@@H]1O [1α,24(S)-(OH)2 D2, 1α,24(S)-dihydroxy vitamin D2]
Incidence of hypercalcemia or hypercalciuria or other metabolic disturbance [1]: insignificant incidence
Total body calcium, radial and spinal bone densities relative to placebo [1]: significantly higher
Incidence of hypercalcemia [2]: insignificant incidence
Intestinal calcium absorption (double-isotope technique) [2]: significantly increases
Radial and spinal bone densities relative to baseline [2]: stable
Serum calcium levels [2]: normalized
Total body calcium relative to baseline [2]: stable values
Promotion of differentiation of HL-60 promyelocytes to monocytes (HL-60 promyelocytes): potent activity
Losses in total body calcium, radial or spinal bone densities relative to baseline ([4]; at or above 1.0 μg/day, 24 to 36 months): reduced losses
Monitored safety parameters ([4]; long-term administration at or above 1.0 μg/day): confirm the safety
Antiproliferative activity (inhibition of thymidine incorporation) [5]: potent (and reversible) antiproliferative activity
